Test results from patent US20240247224A1, “SYSTEM AND METHOD FOR RAPID SUSCEPTIBILITY TESTING” (priority 2023, published 2024).
≈ marks a conversion by molar mass, not a printed value. Where two headings read alike, the source gives them in different places. Blank lines part the entries; values can stand above or below the molecule they belong to.

How the values were obtained:
[1] = system: K pneumoniae 700603; experiment: Optical scatter phenotypic AST on the instrument, K pneumoniae 700603; type: cell-based; details: K pneumoniae 700603 in CAMHB with blood (to mimic a positive blood culture vial); FIG. 30; read-out: Our MIC based on the curves
Text: (§1) In one embodiment, the application of the system is to conduct phenotypic antimicrobial susceptibility testing on gram positive and gram negative organisms from isolates or directly from a positive blood sample. In this embodiment, our method deploys a series of tightly controlled environmental factors, such as temperature, humidity, CO2, along with the use of Mueller-Hinton-II defined media allowing for the testing of these organisms as specified by CLSI. Using specific antibiotics, at various ranges, antibiotic classes, concentrations across the wells of the cassette and allowing bacteria to culture in the presence of antibiotic, one can determine the phenotypic AST results.
(§2) The workflow involves use of a sample preparation kit (if and as needed) to process the sample to be tested (based on the sample type). […] The cassette is then loaded into one of the open bays/readers within the instrument. The reader also has an RFID scanner to record the cassette location i.e., the bay/reader it is inserted into within the instrument. The cassette is then autonomously incubated within the instrument, during which all wells within the cassette are read independently by the reader at regular specified time intervals, until the test is complete. […] Based on the statistical analysis, if the signal change was determined as significant for a given well that well is considered to have detected the analyte. […]

[2] = system: NG 49226 (QC strain); details: FIG. 24; cited from earlier work
[3] = system: NG 49226 (QC strain); experiment: Optical scatter phenotypic AST on the instrument, NG 49226; type: cell-based, Neisseria gonorrhoeae; details: read-out: Our MIC based on the curves
Text: (§3) In one embodiment, the application of the system disclosed herein is to conduct phenotypic antimicrobial susceptibility testing on Neisseria gonorrhoeae (NG). NG is a fastidious organism and a difficult organism to culture in liquid nutrient broth. The instant invention uses a proprietary media designed for the broth culture of NG. Using specific antibiotics, each at multiple concentrations in each well within the cassette and allowing bacteria to culture in the presence of antibiotic, one can determine the phenotypic AST results. Data generated and illustrated in the figures was generated from samples ranging from single wells or a plurality of wells within one or more cassettes.
(§4) In one embodiment, the application of the system is to conduct phenotypic antimicrobial susceptibility testing on NG. […]
(§5) The workflow involves use of a sample preparation kit (if and as needed) to process the sample to be tested (based on the sample type). […] The cassette is then loaded into one of the open bays/readers within the instrument. The reader also has an RFID scanner to record the cassette location i.e., the bay/reader it is inserted into within the instrument. The cassette is then autonomously incubated within the instrument, during which all wells within the cassette are read independently by the reader at regular specified time intervals, until the test is complete. […]

[4] = system: E coli 25922 (QC strain); experiment: Optical scatter phenotypic AST on the instrument, E coli 25922; type: cell-based; details: normalized reading, 650 nm, FIG. 25, read-out: Our MIC based on the curves
Text: as §1, §2

[5] = system: NG AR 0165 (Neisseria gonorrhoeae antibiotic resistant isolate 0165); details: FIG. 22; cited from earlier work
[6] = system: E coli 25922 (QC strain); details: FIG. 25; cited from earlier work
[7] = system: NG AR 0165 (Neisseria gonorrhoeae antibiotic resistant isolate 0165); experiment: Optical scatter phenotypic AST on the instrument, NG AR 0165; type: cell-based; details: normalized reading, 650 nm, FIG. 22, read-out: Our MIC based on the curves
Text: as §3, §4, §5

[8] = system: E faecalis 29212 (QC strain); details: FIG. 29; cited from earlier work
[9] = system: E faecalis 29212 (QC strain); experiment: Optical scatter phenotypic AST on the instrument, E faecalis 29212; type: cell-based; details: E faecalis 29212 (QC strain) in CAMHB with blood (to mimic a positive blood culture vial); FIG. 29; read-out: Our MIC based on the curves
Text: as §1, §2

[10] = system: Serratia marcescens in diluted positive blood culture sample; experiment: Direct-from-positive blood culture AST on the instrument, Serratia marcescens; type: cell-based; details: diluted positive blood culture sample from the clinical lab, FIG. 33, read-out: Our MIC based on the curves
Text: (§6) In one embodiment, the application of the system is to conduct phenotypic antimicrobial susceptibility testing on gram positive and gram-negative organisms from a positive blood sample without plating for an isolate. In this embodiment, the positive blood sample is adjusted to the desired microbial concentration. In this embodiment our method deploys a series of tightly controlled environmental factors, such as temperature, humidity, CO2, along with the use of Mueller-Hinton-II defined media allowing for the testing of these organisms as specified by CLSI. […]
as §5, with “complete. The test completion is determined either by the prespecified time period for the cassette to be run, or until the software algorithm running the data analysis in real-time determines the necessary change to the call to complete the test.” for “complete.”

[11] = system: Serratia marcescens in diluted positive blood culture sample; experiment: In-house broth microdilution test (expected MIC), Serratia marcescens; type: cell-based; details: clinical positive blood culture sample, FIG. 33, read-out: expected MIC value (based on in-house broth microdilution test)
Method: (§7) BMD refers to liquid suspension of an isolated culture in the presence of varying types and concentrations of antibiotics. The liquid cultures are incubated for a period of time at which the turbidity or cloudiness of the suspension is measured either visually, optically or using other detection means. The turbidity is caused by bacteria multiplying and/or a “growing” culture (resistant), whereas a susceptible culture or isolate would appear as clear or lacking turbidity. Use of a reading device permits this process to be semi-automated.

[12] = system: S aureus 29213 (QC strain); experiment: Optical scatter phenotypic AST on the instrument, S aureus 29213; type: cell-based; details: S aureus 29213 (QC strain) in cation adjusted Mueller Hinton Broth (CAMHB); FIG. 28; read-out: Our MIC based on the curves
Text: as §1, §2

[13] = system: NG AR 0179 (Neisseria gonorrhoeae antibiotic resistant isolate 0179); experiment: Optical scatter phenotypic AST on the instrument, NG AR 0179; type: cell-based; details: normalized reading, 650 nm, FIG. 23, read-out: Our MIC based on the curves
Text: as §3, §4, §5

[14] = system: AR Isolate AR 0817; experiment: Optical scatter phenotypic AST on the instrument, AR Isolate AR 0817; type: cell-based; details: Neisseria gonorrhoeae, FIG. 27, read-out: Our MIC from the instrument
Text: as §3, §4, §5

[15] = system: Staphylococcus aureus in diluted positive blood culture sample; experiment: Direct-from-positive blood culture AST on the instrument, Staphylococcus aureus; type: cell-based; details: diluted positive blood culture sample from the clinical lab, FIG. 34, read-out: Our MIC based on the curves
Text: as §6
as §5, with “complete. The test completion is determined either by the prespecified time period for the cassette to be run, or until the software algorithm running the data analysis in real-time determines the necessary change to the call to complete the test.” for “complete.”

[16] = system: Staphylococcus aureus in diluted positive blood culture sample; experiment: In-house broth microdilution test (expected MIC), Staphylococcus aureus; type: cell-based; details: clinical positive blood culture sample, FIG. 34, read-out: expected MIC value (based on in-house broth microdilution test)
Method: as §7

Compound: C[C@@H](O)[C@H]1C(=O)N2C(C(=O)O)=C(SCCN=CN)C[C@H]12 [Imipenem]
MIC [1]: 0.5 µg/mL (≈ 1.67 µM)

Compound: O=C(O)c1cn(C2CC2)c2cc(N3CCNCC3)c(F)cc2c1=O [Ciprofloxacin]
expected MIC value range (per CDC agar dilution testing) [2]: 0.001 to 0.008 µg/mL
MIC ([3]; Neisseria gonorrhoeae, NG 49226 (QC strain), normalized reading, 650 nm, FIG. 24): 0.002 µg/mL (≈ 0.00604 µM)
MIC [4]: 0.008 µg/mL (≈ 0.0241 µM)
expected MIC value (per CDC agar dilution testing) [5]: 8 µg/mL
expected MIC value range (BMD method) [6]: 0.004 to 0.016 µg/mL
MIC [7]: 4 µg/mL (≈ 12.1 µM)

Compound: CN[C@H](CC(C)C)C(=O)N[C@H]1C(=O)N[C@@H](CC(N)=O)C(=O)N[C@H]2C(=O)N[C@H]3C(=O)N[C@H](C(=O)N[C@H](C(=O)O)c4cc(O)cc(O)c4-c4cc3ccc4O)[C@H](O)c3ccc(c(Cl)c3)Oc3cc2cc(c3O[C@@H]2O[C@H](CO)[C@@H](O)[C@H](O)[C@H]2O[C@H]2C[C@](C)(N)[C@H](O)[C@H](C)O2)Oc2ccc(cc2Cl)[C@H]1O [Vancomycin]
expected MIC value [8]: 1 to 4 µg/mL
MIC [9]: 4 µg/mL (≈ 2.76 µM)

MIC [11]: > 16 µg/mL
Compound: CC1(C)S[C@@H]2[C@H](NC(=O)[C@H](N)c3ccccc3)C(=O)N2[C@H]1C(=O)O [ampicillin]
MIC [10]: 16 µg/mL (≈ 45.8 µM)

Compound: CN(C)[C@@H]1C(O)=C(C(N)=O)C(=O)[C@@]2(O)C(O)=C3C(=O)c4c(O)cccc4[C@@](C)(O)[C@H]3C[C@@H]12 [Tetracycline]
MIC [12]: 0.008 µg/mL (≈ 0.018 µM)
MIC [13]: 2 µg/mL (≈ 4.5 µM)

Compound: C=CC1=C(C(=O)O)N2C(=O)[C@@H](NC(=O)/C(=N\OCC(=O)O)c3csc(N)n3)[C@H]2SC1 [Cefixime]
MIC ([3]; Neisseria gonorrhoeae 49226 (QC strain), 5-well cassette system, FIG. 26): 0.008 µg/mL (≈ 0.0176 µM)
MIC [14]: 0.125 µg/mL (≈ 0.276 µM)

Compound: Cc1onc(-c2ccccc2)c1C(=O)N[C@@H]1C(=O)N2[C@@H]1SC(C)(C)[C@@H]2C(=O)O [Oxacillin]
MIC [15]: > 2 µg/mL
MIC [16]: > 2 µg/mL
